Where “and” joins values, the source holds several entries; their conditions need not be identical. Equal entries are not always repeated.
Columns and labels:
[1] = system: human breast cancer MDA-MB231 tumor xenografts; test: Human breast cancer MDA-MB231 tumor xenografts in nude mice: caliper and actual tumor weight, necrotic score; assay type: in vivo; details: Docetaxel group
Procedure: The peptides of the invention were tested in an in vivo model of anti-tumor activity. This model compares the growth of the human breast cancer MDA-MB231 tumor xenografts in nude mice treated with 10 mg/kg or 20 mg/kg daily ip of ST100,059, docetaxel or saline.
Female nude mice (nu/nu) between 5 and 6 weeks of age weighing approximately 20 g were obtained from Harlan, Inc. Animals were implanted subcutaneously (s.c.) by trocar with fragments of human tumors harvested from s.c. grown tumors in nude mice hosts. When the tumors were approximately 60-75 mg in size (about 10-15 days following implantation), the animals were pair-matched into treatment and control groups. Each group contained 8-10 mice, each of which is ear-tagged and followed individually throughout the experiment.
The administration of drugs or controls began the day the animals were pair-matched with tumor size of about 70 mg (Day 1). Mice were weighed and tumor measurements were obtained using calipers twice weekly, starting on Day 1. These tumor measurements were converted to mg tumor weight by the standard formula, (W^2×L)/2. Upon termination of the experiment, the mice were weighed, sacrificed and their tumors were excised. The tumors were weighed, and the mean and medium tumor weight per group was calculated.
For each group, the table reports the caliper measurements and the actual tumor weights obtained as described above.

[2] = system: Mouse B16-F1 melanoma cells; test: Growth of subcutaneous B16 melanoma tumor in C57BL/6 mice; assay type: in vivo; design: unit not given beside the values; details: group average, Doxorubicin group
Procedure: The peptides of the invention were tested in an in vivo model of anti-tumor activity. This model compares the growth of subcutaneous B16 melanoma tumor either untreated or treated with either 20 mg/kg, 40 mg/kg, 100 mg/kg daily ip doses of ST100,059.
Male C57BL/6 mice were obtained with a mean body weight of 20±2 g. Mouse B16-F1 melanoma cells were implanted subcutaneously (5×10^5 cell per animal). Peptides (formulated in water) were administered ip daily starting the day after injection of cells. Tumors became palpable around 9 days after injection of the cells. Tumors were then measured every 2 days.

in vitro = in vitro ADME, bovine; details: serum
Procedure: A stock solution of 1 mM peptide dissolved in water was made. The stock was then diluted to 100 μM in either OptiMem medium+100 units/ml of penicillin and 100 μg/ml streptomycin sulfate+1% fetal bovine serum or in OptiMem+Pen/Strep+10% fetal bovine serum. The diluted samples were placed in a 24-well tissue culture plate in an incubator at 37 degrees. Aliquots of 50-100 μl were removed at 4, 6, 18, 24, 48 and 72 hrs and frozen at −70° C. until analysis.
Samples of 20 μl were separated on a C18 reverse phase column (4.8×250 mm) with a gradient of acetonitrile/water 0.1% TFA and analyzed using a single quad mass spectrometer. Singly or multiply charged peaks were detected depending on the mass of the peptide. Peptide degradation was determined in two ways: loss of peak area in the chromatogram produced using the mass spectrometer as the detector and loss of the main peak in the mass spectrum with simultaneous appearance of a peak(s) from a breakdown product.

[3] = system: bovine retinal endothelial cells (BRE); test: VEGF mediated survival/proliferation of BRE cells, WST-1 assay, peptides added at plating (before cells adhered); assay type: cell-based; details: VEGF 25 ng/ml, 72 h; for WST-1 induced colorimetric change measured at 440 nm, average: average of wells; for WST-1 induced colorimetric change measured at 440 nm: single wells, 1% FBS
Procedure: The anti-angiogenic activities of the peptides were tested by measuring the level of inhibition of VEGF mediated survival/proliferation of bovine retinal endothelial cells (BRE), a standard cell line used to test anti-angiogenic compounds. Cells were maintained in Cambrex EGM-2MV medium. On day one cells were starved for either 6 hours or overnight, and thereafter trypsinized and plated in a 96 well plate in 100 μl of Invitrogen OptiMem+1% fetal bovine serum. A 100 μl aliquot of Invitrogen OptiMem+1% fetal bovine serum was then added to the wells in addition to, where appropriate, VEGF to a final concentration of 25 ng/ml and the various peptides to final concentration of 12.5, 25, 50 and 100 μg/ml. After 72 hours incubation, the number of live cells in each well was determined using the WST-1 assay (Roche).
The experiment was repeated using higher concentrations of peptide, to a maximum concentration of 200 μg/ml. This required the addition of a substantial amount of water (the peptides are soluble in water and are maintained as stock solution of 2 mg/ml). Therefore, we tested whether the addition of water itself would have any inhibitory effects. As before, BRE were maintained in Cambrex EGM-2MV medium. On day one, cells were starved for either 6 hours or overnight, and thereafter trypsinized and plated in a 96 well plate in 100 μl of OptiMem+1% fetal bovine serum. A 100 μl aliquot of OptiMem+1% fetal bovine serum was then added to the wells, further containing, where appropriate, VEGF to a final concentration of 25 ng/ml and the various peptides to final concentration of 25, 50, 100 and 200 μg/ml. After 72 hours incubation, the amount of live cells in each well was measured using the WST-1 assay (Roche). […]

[4] = system: VEGF-induced angiogenesis; test: VEGF-induced angiogenesis in Matrigel angio-reactors in FVB/N mice, FITC-dextran fluorescence; assay type: in vivo
Procedure: The peptides of the invention were also tested in an in vivo model of anti-angiogenic activity. This model analyzes VEGF-induced angiogenesis as it occurs in angio-reactors filled with Matrigel in wild-type FVB/N mice (Guedez et al., 2003, Am. J. Pathol. 162:1431-1439).
• Sterile, polyethene tubing (0.14 cm internal diameter) is cut to standard 1 cm lengths using a plexiglass template and single edge razor blade. These tubes are sealed at one end with nail-polish. Into the tubes, 20 μl of Matrigel (growth factor free obtained from BD Biosciences) containing 500 ng/ml VEGF with or without the indicated peptides is injected. After one hour of polymerization of the Matrigel at room temperature the angio-reactors are subcutaneously implanted into both flanks of wild-type FVB/N female mice (8-10 weeks old).
• After 10 days, angiogenesis in the angio-reactors is determined. Mice receive a 100 μl injection of 25 mg/ml of FITC-dextran in phosphate-buffered saline (PBS) via tail vein 20 minutes before collection of the angio-reactors. Quantification of vessel functionality is performed by removal of the Matrigel from the angio-reactors and the fluorescence is measured using a FLUOstar Galaxy microplate reader (excitation 485 nm, emission 520 nm, BMG Labtechnologies GmbH, Germany). The mean relative fluorescence±SD for 10 angio-reactors is determined and statistical analysis performed.

[5] = experiment 2, Bonferroni's Multiple Comparison Test

Compound	WST-1 induced colorimetric change measured at 440 nm, average ([3]; peptide 12.5 μg/ml, Table 2)	WST-1 induced colorimetric change measured at 440 nm, average ([3]; peptide 25 μg/ml, Table 2)	WST-1 induced colorimetric change measured at 440 nm, average ([3]; peptide 25 μg/ml, Table 3)	WST-1 induced colorimetric change measured at 440 nm, average ([3]; peptide 50 μg/ml, Table 2)	WST-1 induced colorimetric change measured at 440 nm, average ([3]; peptide 50 μg/ml, Table 3)	WST-1 induced colorimetric change measured at 440 nm, average ([3]; peptide 100 μg/ml, Table 2)	WST-1 induced colorimetric change measured at 440 nm, average ([3]; peptide 100 μg/ml, Table 3)	WST-1 induced colorimetric change measured at 440 nm, average ([3]; peptide 200 μg/ml, Table 3)	WST-1 induced colorimetric change measured at 440 nm ([3]; peptide 12.5 μg/ml, Table 2)	WST-1 induced colorimetric change measured at 440 nm ([3]; peptide 25 μg/ml, Table 2)	WST-1 induced colorimetric change measured at 440 nm ([3]; peptide 25 μg/ml, Table 3)	WST-1 induced colorimetric change measured at 440 nm ([3]; peptide 50 μg/ml, Table 2)	WST-1 induced colorimetric change measured at 440 nm ([3]; peptide 50 μg/ml, Table 3)	WST-1 induced colorimetric change measured at 440 nm ([3]; peptide 100 μg/ml, Table 2)	WST-1 induced colorimetric change measured at 440 nm ([3]; peptide 100 μg/ml, Table 3)	WST-1 induced colorimetric change measured at 440 nm ([3]; peptide 200 μg/ml, Table 3)	also measured
CC(=O)O[C@@]12CO[C@@H]1C[C@H](O)[C@@]1(C)C(=O)[C@H](O)C3=C(C)[C@@H](OC(=O)[C@H](O)[C@@H](NC(=O)OC(C)(C)C)c4ccccc4)C[C@@](O)([C@@H](OC(=O)c4ccccc4)[C@H]21)C3(C)C [Docetaxel]																	actual tumor weight, Average ([1]; group average): 1523 mg; caliper tumor weight, Average ([1]; group average): 1742.22 mg; actual tumor weight, Median ([1]; group median): 35 mg; caliper tumor weight, Median ([1]; group median): 75 mg; caliper tumor weight ([1]; individual mouse, caliper measurement converted by (W^2×L)/2, at termination): 87.5 mg and 32 mg (2×) and 48 mg and 75 mg (2×) and 288 mg and 126 mg (2×); actual tumor weight ([1]; individual mouse, excised tumor weighed): 54 mg and 10 mg and 18 mg and 26 mg and 35 mg and 225 mg and 25 mg and 82 mg and 46 mg
COc1cccc2c1C(=O)c1c(O)c3c(c(O)c1C2=O)C[C@@](O)(C(=O)CO)C[C@@H]3O[C@H]1C[C@H](N)[C@H](O)[C@H](C)O1 [Doxorubicin]																	subcutaneous B16 melanoma tumor measurement, Average ([2]; Day 11): 213.41; subcutaneous B16 melanoma tumor measurement, Average ([2]; Day 13): 419.71; subcutaneous B16 melanoma tumor measurement, Average ([2]; Day 15): 744.61; subcutaneous B16 melanoma tumor measurement, Average ([2]; Day 16): 1261.33
CC(C)C[C@H](NC(=O)[C@H](CO)NC(=O)[C@@H](NC(=O)[C@H](C)N)[C@@H](C)O)C(=O)N1CCC[C@H]1C(=O)N1CCC[C@H]1C(=O)N[C@@H](Cc1c[nH]cn1)C(=O)N[C@@H](CO)C(=O)N[C@@H](CO)C(=O)N[C@@H](CCC(N)=O)C(=O)N[C@@H](CO)C(=O)N1CCC[C@H]1C(=O)O [ST100,038, ATSLPPHSSQSP]																	peptide remaining (in words) (in vitro; bovine, 18 h): none remained; metabolised at 4 h, 100 μM (in vitro): 50%; metabolised at 6 h, 100 μM (in vitro): 65%; metabolised at 18 h, 100 μM (in vitro): 25%; metabolised at 24 h, 100 μM (in vitro): 33%; metabolised at 48 h, 100 μM (in vitro): 60%; metabolised at 72 h, 100 μM (in vitro): 85%
LPPHSS (listed as Homo sapiens) [ST100,037]	0.753	0.708	0.449	0.643	0.442	0.694	0.466	0.386	0.780 and 0.730 and 0.748	0.716 and 0.713 and 0.695	0.439 and 0.432 and 0.476	0.636 and 0.659 and 0.633	0.427 and 0.438 and 0.462	0.692 and 0.697 and 0.694	0.449 and 0.486 and 0.462	0.384 and 0.401 and 0.372	
LPPHSSQSP ((1)..(1) May be biotinylated; listed as Homo sapiens) [ST100,039]	0.686	0.656	0.462	0.576	0.496	0.609	0.478	0.443	0.701 and 0.735 and 0.621	0.717 and 0.687 and 0.564	0.411 and 0.495 and 0.480	0.605 and 0.593 and 0.530	0.489 and 0.507 and 0.491	0.659 and 0.588 and 0.581	0.451 and 0.517 and 0.465	0.416 and 0.453 and 0.459	
SPWSSCSVTCGDGVITRIR (listed as Homo sapiens) [TSP616]																	relative fluorescence (FITC-dextran) of angio-reactors, mean ([4]; experiment 1, group mean, VEGF + inhibitor 40 μM): 6111; Mean Diff., pbs vs inhibitor group [4, 5]: −0.5; Mean Diff., vegf vs inhibitor group [4, 5]: 2645; relative fluorescence of angio-reactors, average ([4]; experiment 2, group average): 635; relative fluorescence of angio-reactors, median ([4]; experiment 2, group median): 484

Reference: patent publication US20090047335A1, “Anti-angiogenic peptides and methods of use thereof” (SOPHERION THERAPEUTICS, INC., priority 2004, published 2009)
